Experimental data published in PubChem BioAssay (NCI).
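Values below derive from 48-hour exposures of cells grown in 96-well plates, with endpoints linearly interpolated between the two concentrations bracketing the appropriate inhibition level. TGI: concentration producing complete growth inhibition.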

What was measured:
Experiment in all cases: inhibition of tumour cell growth, NCI panel, 48 h
OVCAR-8 ovarian = test system: OVCAR-8 ovarian
HT29 colon = test system: HT29 colon
UO-31 renal = test system: UO-31 renal
SN12C renal = test system: SN12C renal
COLO 205 colon = test system: COLO 205 colon
HS 578T breast = test system: HS 578T breast
OVCAR-5 ovarian = test system: OVCAR-5 ovarian
HCC-2998 colon = test system: HCC-2998 colon
IGROV1 ovarian = test system: IGROV1 ovarian
SF-539 CNS = test system: SF-539 CNS
A498 renal = test system: A498 renal
M14 melanoma = test system: M14 melanoma
SK-MEL-5 melanoma = test system: SK-MEL-5 melanoma
CAKI-1 renal = test system: CAKI-1 renal
NCI-H226 lung = test system: NCI-H226 lung
SW-620 colon = test system: SW-620 colon
EKVX NSCLC = test system: EKVX NSCLC
BT-549 breast = test system: BT-549 breast
KM12 colon = test system: KM12 colon
NCI-H522 lung = test system: NCI-H522 lung

Measured: TGI

CC(C)(C)n1c(=O)n(-c2ccccc2)n(C(C)(C)C)c1=O
not listed: NCI-H522 lung
> 100 µM: all other assays above

C[C@@H](NC(=O)Cn1c(Cl)nc2ccccc21)c1ccccc1
not listed: SN12C renal | IGROV1 ovarian
> 100 µM: all other assays above

O=C(/C=C/c1ccccc1)c1cc(C(=O)/C=C/c2ccccc2)c(O)cc1O
83.7 µM: HS 578T breast
90.7 µM: A498 renal
not listed: NCI-H226 lung | KM12 colon | NCI-H522 lung
> 100 µM: all other assays above

Cc1ccc2c(c1)C=CC1(O2)N(c2ccccc2)C(=S)OC1(C)C (stereo unspecified)
not listed: SF-539 CNS | NCI-H522 lung
> 100 µM: all other assays above

CC(=O)O[C@H]1CC[C@H]2[C@@H]3CCC4=C/C(=N/OCCN(C)C)CC[C@]4(C)[C@H]3CC[C@]12C
23.9 µM: SW-620 colon
6.8 µM: HT29 colon
10.1 µM: M14 melanoma
28.1 µM: OVCAR-8 ovarian | UO-31 renal
33.7 µM: SN12C renal
27.2 µM: CAKI-1 renal | BT-549 breast
34.1 µM: HS 578T breast
31.9 µM: OVCAR-5 ovarian
22.7 µM: NCI-H522 lung
9.62 µM: SK-MEL-5 melanoma
15.7 µM: NCI-H226 lung
8.18 µM: COLO 205 colon
26.2 µM: IGROV1 ovarian
18.9 µM: KM12 colon
29 µM: EKVX NSCLC
19 µM: HCC-2998 colon
7.28 µM: SF-539 CNS

O=C(Cn1c2c(c3ccccc31)CCCC2)N1CCCCC1
not listed: A498 renal | NCI-H226 lung | KM12 colon | NCI-H522 lung
> 100 µM: all other assays above

CC1(C)OC[C@H](COCOP2(=O)Oc3ccc4ccccc4c3-c3c(ccc4ccccc34)O2)O1
72.2 µM: IGROV1 ovarian
31 µM: A498 renal | BT-549 breast
29.4 µM: KM12 colon
32.6 µM: UO-31 renal
37.3 µM: NCI-H226 lung
39.8 µM: SF-539 CNS
63.3 µM: OVCAR-8 ovarian
33.4 µM: OVCAR-5 ovarian
30.1 µM: SN12C renal
29.7 µM: SW-620 colon
31.3 µM: HT29 colon | HCC-2998 colon
> 100 µM: HS 578T breast
32 µM: M14 melanoma
73 µM: SK-MEL-5 melanoma

Cc1cccc(Nc2nc3ccccc3nc2NS(=O)(=O)c2ccccc2)c1
73.9 µM: NCI-H522 lung
6.93 µM: HCC-2998 colon
30.7 µM: COLO 205 colon
59 µM: UO-31 renal
not listed: A498 renal
> 100 µM: all other assays above

CCCCCCc1cc2cc(-c3cn4c(n3)sc3ccccc34)c(=O)oc2cc1O
> 72.1 µM: HS 578T breast
not listed: A498 renal
> 100 µM: all other assays above

O=C(Cn1c(C(=O)/C=C/c2ccc(Cl)cc2)nc2ccccc21)c1ccc(Cl)cc1
64.4 µM: NCI-H226 lung
> 100 µM: A498 renal | SW-620 colon
43.6 µM: M14 melanoma
29.3 µM: SK-MEL-5 melanoma
64.5 µM: EKVX NSCLC
64.1 µM: OVCAR-5 ovarian
29.1 µM: HS 578T breast
38.6 µM: SF-539 CNS
55.2 µM: BT-549 breast
27.6 µM: KM12 colon
71.7 µM: IGROV1 ovarian
32.4 µM: HCC-2998 colon
43 µM: UO-31 renal
37.3 µM: SN12C renal
42.5 µM: HT29 colon
36.1 µM: COLO 205 colon

CCOC(=O)c1c(N2CCOCC2)ncn(-c2cccc(Cl)c2)c1=O
not listed: UO-31 renal | SK-MEL-5 melanoma
> 100 µM: all other assays above

COc1ccc2nc3n(c2c1)C(c1c(F)cccc1F)SC3 (stereo unspecified)
55 µM: EKVX NSCLC
66.2 µM: NCI-H226 lung
87.7 µM: HS 578T breast
not listed: NCI-H522 lung
> 100 µM: all other assays above

CN(C)CCNC(=O)c1cccc2c1Oc1cccc([N+](=O)[O-])c1O2
32.9 µM: NCI-H522 lung
27.9 µM: NCI-H226 lung
44.7 µM: KM12 colon
33.6 µM: BT-549 breast
32.5 µM: UO-31 renal
34.1 µM: IGROV1 ovarian
36 µM: COLO 205 colon
40.2 µM: HS 578T breast
56.1 µM: HCC-2998 colon
33.5 µM: HT29 colon
33.7 µM: CAKI-1 renal
> 100 µM: SN12C renal
50 µM: OVCAR-8 ovarian
39.5 µM: OVCAR-5 ovarian
30 µM: M14 melanoma
40.1 µM: SF-539 CNS
46.2 µM: SW-620 colon
30.5 µM: A498 renal
33.2 µM: SK-MEL-5 melanoma

C=CCSC1=N/C(=C\c2ccc(OC)cc2)C(=O)N1CC=C
59.2 µM: EKVX NSCLC
29 µM: SK-MEL-5 melanoma
62.2 µM: SN12C renal
71.7 µM: KM12 colon
40.2 µM: COLO 205 colon
66.6 µM: A498 renal
74.4 µM: BT-549 breast
79.7 µM: HCC-2998 colon
not listed: NCI-H226 lung
> 100 µM: all other assays above

O=c1oc2ccccc2c(O)c1C(c1cccc(C(c2c(O)c3ccccc3oc2=O)c2c(O)c3ccccc3oc2=O)c1)c1c(O)c2ccccc2oc1=O
49.5 µM: CAKI-1 renal
35.6 µM: NCI-H522 lung
46.2 µM: HCC-2998 colon
53.9 µM: SF-539 CNS
95.7 µM: SK-MEL-5 melanoma
83 µM: SN12C renal
not listed: UO-31 renal
> 100 µM: all other assays above

CC1=NN(C(=O)CC(=O)NC(=O)/C=C\c2ccccc2)C(=O)C1N=Nc1ccc([N+](=O)[O-])cc1 (stereo unspecified)
83.5 µM: BT-549 breast
not listed: SK-MEL-5 melanoma | NCI-H226 lung | NCI-H522 lung
> 100 µM: all other assays above

O=CC(O)C(O)C1OC(=O)c2cc(O)c(O)c(O)c2C2=C(O)C(O)=C3OC(=O)c4c(c(O)c(O)c5c4C3C2C(=O)O5)-c2c(cc(O)c(O)c2O)C(=O)OCC1O (stereo unspecified)
42.9 µM: HT29 colon
37.7 µM: CAKI-1 renal
36.3 µM: SW-620 colon
45.9 µM: OVCAR-8 ovarian
86.4 µM: NCI-H522 lung
30.4 µM: SN12C renal
31.2 µM: KM12 colon
not listed: SF-539 CNS
> 100 µM: all other assays above

COc1ccc(CCc2ccc3c(c2)OCO3)cc1
not listed: UO-31 renal
> 100 µM: all other assays above

CCOC(=O)N/N=C(\CC)NO
not listed: M14 melanoma
> 100 µM: all other assays above

CC(C)(C)[Si](C)(C)OCCc1ccccc1C1CC2(S(=O)(=O)c3ccccc3)ON1CC2S(=O)(=O)c1ccccc1 (stereo unspecified)
not listed: CAKI-1 renal | NCI-H522 lung
> 100 µM: all other assays above

CN(/N=C/C=N/N(C)C1=NCCCN1)C1=NCCCN1
not listed: A498 renal
> 100 µM: all other assays above

Cc1c(NC(=O)CSC(=S)N(C)C)c(=O)n(-c2ccccc2)n1C
not listed: A498 renal
> 100 µM: all other assays above

O=[N+]([O-])c1cccc(-c2cn3c(n2)Cc2ccccc2C3)c1
79.9 µM: OVCAR-5 ovarian
58.2 µM: CAKI-1 renal
not listed: HCC-2998 colon
> 100 µM: all other assays above

COC(=O)[C@]12C3=C(O)C(=O)C[C@H]1OC[C@H]2C=CC3
46.8 µM: NCI-H522 lung
63.4 µM: SW-620 colon
not listed: HT29 colon | SF-539 CNS | NCI-H226 lung
> 100 µM: all other assays above

CCOC(=O)CC(=O)Nc1cccc2sc3ncccc3c(=O)c12
40.5 µM: SK-MEL-5 melanoma
not listed: IGROV1 ovarian | A498 renal
> 100 µM: all other assays above
